Measured values published in PubChem BioAssay AID248 (DTP/NCI, 2004).
Several values for one entry are separate records, joined by “and”; a condition that tells them apart may be missing. Identical values can stand only once. Toxic doses and inconclusive results are not listed. Rule as the data show it: active = T/C of 150% or more; inactive = T/C below 125%.

System: L1210 leukemia ip in BDF1 mice, survival T/C
Test: NCI In Vivo Anticancer Drug Screen. Data for tumor model L1210 Leukemia (intraperitoneal) in B6D2F1 (BDF1) mice
Conditions: endpoint: mean survival time, higher = longer survival
Summary of the method: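 Survival endpoint. Drug-treated group vs vehicle group, expressed as T divided by C. Tumor passaged by transplantation.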

[1] = dose: 100.0 mg/kg/injection, schedule: Q01DX009 (ip), vehicle: Klucel (hydroxypropylcellulose) (HPC)
[2] = dose: 200.0 mg/kg/injection, schedule: Q01DX009 (ip), vehicle: Klucel (hydroxypropylcellulose) (HPC)
[3] = dose: 25.0 mg/kg/injection, schedule: Q04DX003 (ip), vehicle: Klucel (hydroxypropylcellulose) (HPC)
[4] = dose: 50.0 mg/kg/injection, schedule: Q04DX003 (ip), vehicle: Klucel (hydroxypropylcellulose) (HPC)
[5] = dose: 100.0 mg/kg/injection, schedule: Q04DX003 (ip), vehicle: Klucel (hydroxypropylcellulose) (HPC)

Measured: T/C

O=[N+]([O-])c1ccc(NCCO)c([N+](=O)[O-])c1
inactive: dose: 100.0 mg/kg/injection, schedule: Q01DX009 (ip), vehicle: saline with Tween-80 98 % of control | dose: 100.0 mg/kg/injection, schedule: Q04DX003 (ip), vehicle: saline with Tween-80 88 % of control | dose: 200.0 mg/kg/injection, schedule: Q01DX009 (ip), vehicle: saline with Tween-80 106 % of control | dose: 200.0 mg/kg/injection, schedule: Q04DX003 (ip), vehicle: saline with Tween-80 97 % of control | dose: 400.0 mg/kg/injection, schedule: Q04DX003 (ip), vehicle: saline with Tween-80 88 % of control

Cc1cccc(N=C/C=C/c2ccccc2)c1C
inactive: [1] 94 % of control | [2] 100 % of control | dose: 400.0 mg/kg/injection, schedule: Q01DX009 (ip), vehicle: Klucel (hydroxypropylcellulose) (HPC) 108 % of control

Cc1cc(CC#N)c(C)c([N+](=O)[O-])c1
inactive: [3] 96 % of control | [4] 89 % of control

O=C(Nc1ccc(F)cc1)Nc1ccc(Nc2ccccc2)cc1
inactive: dose: 100.0 mg/kg/injection, schedule: Q01DX001 (ip), vehicle: carboxymethylcellulose (CMC) 91 % of control | dose: 100.0 mg/kg/injection, schedule: Q01DX009 (ip), vehicle: carboxymethylcellulose (CMC) 97 % of control | dose: 100.0 mg/kg/injection, schedule: Q04DX002 (ip), vehicle: carboxymethylcellulose (CMC) 93 % of control and 86 % of control | dose: 100.0 mg/kg/injection, schedule: Q04DX003 (ip), vehicle: carboxymethylcellulose (CMC) 88 % of control | dose: 200.0 mg/kg/injection, schedule: Q01DX001 (ip), vehicle: carboxymethylcellulose (CMC) 91 % of control | dose: 200.0 mg/kg/injection, schedule: Q01DX009 (ip), vehicle: carboxymethylcellulose (CMC) 87 % of control | dose: 200.0 mg/kg/injection, schedule: Q04DX002 (ip), vehicle: carboxymethylcellulose (CMC) 98 % of control and 86 % of control | dose: 200.0 mg/kg/injection, schedule: Q04DX003 (ip), vehicle: carboxymethylcellulose (CMC) 93 % of control | dose: 400.0 mg/kg/injection, schedule: Q01DX001 (ip), vehicle: carboxymethylcellulose (CMC) 91 % of control | dose: 400.0 mg/kg/injection, schedule: Q01DX009 (ip), vehicle: carboxymethylcellulose (CMC) 92 % of control and 87 % of control | dose: 400.0 mg/kg/injection, schedule: Q04DX002 (ip), vehicle: carboxymethylcellulose (CMC) 88 % of control | dose: 400.0 mg/kg/injection, schedule: Q04DX003 (ip), vehicle: carboxymethylcellulose (CMC) 88 % of control

CCN(CC)/N=C/CC(C)Nc1ccnc2cc(Cl)ccc12 (stereo unspecified)
inactive: dose: 3.12 mg/kg/injection, schedule: Q01DX009 (ip), vehicle: acetone 92 % of control | dose: 6.25 mg/kg/injection, schedule: Q01DX009 (ip), vehicle: acetone 97 % of control | dose: 12.5 mg/kg/injection, schedule: Q04DX003 (ip), vehicle: saline 93 % of control

CC(C)NNC(C)Cc1ccccc1 (stereo unspecified)
inactive: [3] 104 % of control | [4] 102 % of control | [5] 98 % of control

COc1ccc(C=O)cc1OCCCCCOc1cc(C=O)ccc1OC
inactive: dose: 50.0 mg/kg/injection, schedule: Q01DX009 (ip), vehicle: Klucel (hydroxypropylcellulose) (HPC) 86 % of control | [1] 101 % of control | [2] 90 % of control

CC(C)(C)CC(N)=O
inactive: dose: 100.0 mg/kg/injection, schedule: Q01DX001 (ip), vehicle: saline 106 % of control | dose: 100.0 mg/kg/injection, schedule: Q01DX009 (ip), vehicle: saline 101 % of control | [5] 117 % of control | dose: 100.0 mg/kg/injection, schedule: Q04DX003 (ip), vehicle: saline 103 % of control | dose: 133.0 mg/kg/injection, schedule: Q01DX009 (ip), vehicle: Klucel (hydroxypropylcellulose) (HPC) 111 % of control | dose: 133.0 mg/kg/injection, schedule: Q04DX003 (ip), vehicle: Klucel (hydroxypropylcellulose) (HPC) 123 % of control | dose: 200.0 mg/kg/injection, schedule: Q01DX001 (ip), vehicle: saline 97 % of control | [2] 111 % of control | dose: 200.0 mg/kg/injection, schedule: Q01DX009 (ip), vehicle: saline 89 % of control | dose: 200.0 mg/kg/injection, schedule: Q04DX003 (ip), vehicle: Klucel (hydroxypropylcellulose) (HPC) 124 % of control | dose: 200.0 mg/kg/injection, schedule: Q04DX003 (ip), vehicle: saline 97 % of control | dose: 300.0 mg/kg/injection, schedule: Q01DX009 (ip), vehicle: Klucel (hydroxypropylcellulose) (HPC) 105 % of control | dose: 300.0 mg/kg/injection, schedule: Q04DX003 (ip), vehicle: Klucel (hydroxypropylcellulose) (HPC) 98 % of control | dose: 400.0 mg/kg/injection, schedule: Q01DX001 (ip), vehicle: saline 103 % of control | dose: 400.0 mg/kg/injection, schedule: Q01DX009 (ip), vehicle: saline 97 % of control | dose: 400.0 mg/kg/injection, schedule: Q04DX003 (ip), vehicle: Klucel (hydroxypropylcellulose) (HPC) 109 % of control | dose: 400.0 mg/kg/injection, schedule: Q04DX003 (ip), vehicle: saline 103 % of control

N#Cc1ccccc1N=NNc1ccccc1C#N
inactive: dose: 6.25 mg/kg/injection, schedule: Q01DX009 (ip), vehicle: Klucel (hydroxypropylcellulose) (HPC) 112 % of control | dose: 12.5 mg/kg/injection, schedule: Q01DX009 (ip), vehicle: Klucel (hydroxypropylcellulose) (HPC) 112 % of control | dose: 25.0 mg/kg/injection, schedule: Q01DX009 (ip), vehicle: Klucel (hydroxypropylcellulose) (HPC) 115 % of control | dose: 75.0 mg/kg/injection, schedule: Q01DX001 (ip), vehicle: other 96 % of control | dose: 150.0 mg/kg/injection, schedule: Q01DX001 (ip), vehicle: other 92 % of control

O=C1CC(=O)C(Cl)=C1Cl
inactive: dose: 15.0 mg/kg/injection, schedule: Q01DX001 (ip), vehicle: carboxymethylcellulose (CMC) 93 % of control

CSc1ccnc2[nH]ncc12
inactive: dose: 100.0 mg/kg/injection, schedule: Q04DX002 (ip), vehicle: DMSO 94 % of control | dose: 200.0 mg/kg/injection, schedule: Q04DX002 (ip), vehicle: DMSO 105 % of control
